Converted amounts (≈) assume the structure as drawn. Read-outs that look alike come from different tables or passages of the source.
How the values were obtained:
[1] = tested on: P388 lymphocytic leukemia; assay: in vitro murine P388 lymphocytic leukemia (PS) cell growth inhibition; type: cell-based; details: for GI50: Mouse Leukemia P388; for PS ED50 (P388 ED50): in vitro P388 lymphocytic leukemia
From the text: The fractions obtained from the 1988-89 recollection of Cribrochalina so. (See: Pettit, G. R.; Collins, J. C.; Herald, D. L.; Doubek, D. L.; Boyd, M. R.; Schmidt, J. M.; Hooper, J. N. A.; Tackett, L. P. Can. J. Cheim. 1992, 70, 1170-1175) beginning with the 195 g dichloromethane partition fraction were re-examined guided by bioassay results using the murine P388 lymphocytic leukemia.
(§1) Individual cell line response values are provided in the Experimental.

[2] = tested on: Streptococcus pneumoniae (ATCC 6303); assay: Antimicrobial disk diffusion; type: cell-based
[3] = tested on: Micrococcus luteus (Presque Isle 456); assay: Antimicrobial disk diffusion; type: cell-based
KM20L2 (Colon) = assay: ASU-CRI minipanel of human cancer cell lines; type: cell-based
From the text: as §1

SF-295 (CNS) = assay: ASU-CRI minipanel of human cancer cell lines; type: cell-based; details: CNS SF-295
From the text: as §1

DU-145 (Prostate) = assay: ASU-CRI minipanel of human cancer cell lines; type: cell-based; details: Prostate DU-145
From the text: as §1

BXPC-3 (Pancreas-a) = assay: ASU-CRI minipanel of human cancer cell lines; type: cell-based; details: Pancreas-a BXPC-3
From the text: as §1

NCI-H460 (Lung-NSC) = assay: ASU-CRI minipanel of human cancer cell lines; type: cell-based
From the text: as §1

OVCAR-3 (Ovarian) = assay: ASU-CRI minipanel of human cancer cell lines; type: cell-based; details: Ovarian OVCAR-3
From the text: as §1

[4] = tested on: Bacillus subtilis (Presque Isle 620); assay: Antimicrobial disk diffusion; type: cell-based
SF-539 = assay: NCI 60-cell screen; type: cell-based, human; details: averaged, quadruplicate, upper limit 10^−5 M
UACC-62 = assay: NCI 60-cell screen; type: cell-based, human; details: averaged, quadruplicate, upper limit 10^−5 M
ACHN = assay: NCI 60-cell screen; type: cell-based, human; details: averaged, quadruplicate, upper limit 10^−5 M
[5] = tested on: Candida albicans (ATCC 90028); assay: Antimicrobial disk diffusion; type: cell-based
OVCAR-8 = assay: NCI 60-cell screen; type: cell-based, human; details: averaged, quadruplicate, upper limit 10^−5 M
MDA-MB-435 = assay: NCI 60-cell screen; type: cell-based, human; details: averaged, quadruplicate, upper limit 10^−5 M
SR = assay: NCI 60-cell screen; type: cell-based, human; details: averaged, quadruplicate, upper limit 10^−5 M
RXF-393 = assay: NCI 60-cell screen; type: cell-based, human; details: averaged, quadruplicate, upper limit 10^−5 M
CCRF-CEM = assay: NCI 60-cell screen; type: cell-based, human; details: averaged, quadruplicate, upper limit 10^−5 M
HOP-92 = assay: NCI 60-cell screen; type: cell-based, human; details: averaged, quadruplicate, upper limit 10^−5 M
SF-268 = assay: NCI 60-cell screen; type: cell-based, human; details: averaged, quadruplicate, upper limit 10^−5 M
LOX IMVI = assay: NCI 60-cell screen; type: cell-based, human; details: averaged, quadruplicate, upper limit 10^−5 M
MCF7/ADR-RES = assay: NCI 60-cell screen; type: cell-based, human; details: averaged, quadruplicate, upper limit 10^−5 M
[6] = tested on: Staphylococcus aureus (ATCC 29213); assay: Antimicrobial disk diffusion; type: cell-based
U251 = assay: NCI 60-cell screen; type: cell-based, human; details: averaged, quadruplicate, upper limit 10^−5 M
SW-620 = assay: NCI 60-cell screen; type: cell-based, human; details: averaged, quadruplicate, upper limit 10^−5 M
MCF7 = assay: NCI 60-cell screen; type: cell-based, human; details: averaged, quadruplicate, upper limit 10^−5 M
A549/ATCC = assay: NCI 60-cell screen; type: cell-based, human; details: averaged, quadruplicate, upper limit 10^−5 M
SN12C = assay: NCI 60-cell screen; type: cell-based, human; details: averaged, quadruplicate, upper limit 10^−5 M
[7] = tested on: Penicillin-resistant N. gonorrhoeae (clinical isolate); assay: Antimicrobial disk diffusion; type: cell-based
T-47D = assay: NCI 60-cell screen; type: cell-based, human; details: averaged, quadruplicate, upper limit 10^−5 M
[8] = tested on: Neisseria gonorrhoeae (ATCC 49226); assay: Antimicrobial disk diffusion; type: cell-based
HOP-62 = assay: NCI 60-cell screen; type: cell-based, human; details: averaged, quadruplicate, upper limit 10^−5 M
COLO 205 = assay: NCI 60-cell screen; type: cell-based, human; details: averaged, quadruplicate, upper limit 10^−5 M
[9] = tested on: Escherichia coli (ATCC 25922); assay: Antimicrobial disk diffusion; type: cell-based
HL-60 (TB) = assay: NCI 60-cell screen; type: cell-based, human; details: averaged, quadruplicate, upper limit 10^−5 M
NCI-H226 = assay: NCI 60-cell screen; type: cell-based, human; details: averaged, quadruplicate, upper limit 10^−5 M
[10] = tested on: Cryptococcus neoformans (ATCC 90112); assay: Antimicrobial disk diffusion; type: cell-based
PC-3 = assay: NCI 60-cell screen; type: cell-based, human; details: averaged, quadruplicate, upper limit 10^−5 M
OVCAR-3 = assay: NCI 60-cell screen; type: cell-based, human; details: averaged, quadruplicate, upper limit 10^−5 M
SK-MEL-5 = assay: NCI 60-cell screen; type: cell-based, human; details: averaged, quadruplicate, upper limit 10^−5 M
RPMI-8226 = assay: NCI 60-cell screen; type: cell-based, human; details: averaged, quadruplicate, upper limit 10^−5 M
OVCAR4 = assay: NCI 60-cell screen; type: cell-based, human; details: averaged, quadruplicate, upper limit 10^−5 M
KM 12 = assay: NCI 60-cell screen; type: cell-based, human; details: averaged, quadruplicate, upper limit 10^−5 M
K-562 = assay: NCI 60-cell screen; type: cell-based, human; details: averaged, quadruplicate, upper limit 10^−5 M
MDA-MB-231/ATCC = assay: NCI 60-cell screen; type: cell-based, human; details: averaged, quadruplicate, upper limit 10^−5 M
NCI-H522 = assay: NCI 60-cell screen; type: cell-based, human; details: averaged, quadruplicate, upper limit 10^−5 M
MALME-3M = assay: NCI 60-cell screen; type: cell-based, human; details: averaged, quadruplicate, upper limit 10^−5 M
[11] = tested on: NCI 60-cell in vitro panel; assay: NCI 60-cell in vitro panel, mean panel; type: cell-based, human; details: average ±SEM from the 40 cell lines that yielded GI50 values for both 4a and 5
From the text: as §1

MOLT-4 = assay: NCI 60-cell screen; type: cell-based, human; details: averaged, quadruplicate, upper limit 10^−5 M
HS578T = assay: NCI 60-cell screen; type: cell-based, human; details: averaged, quadruplicate, upper limit 10^−5 M
SNB-75 = assay: NCI 60-cell screen; type: cell-based, human; details: averaged, quadruplicate, upper limit 10^−5 M
NCI-H460 = assay: NCI 60-cell screen; type: cell-based, human; details: averaged, quadruplicate, upper limit 10^−5 M
[12] = tested on: Enterococcus faecalis (ATCC 29212); assay: Antimicrobial disk diffusion; type: cell-based
IGROV1 = assay: NCI 60-cell screen; type: cell-based, human; details: averaged, quadruplicate, upper limit 10^−5 M
[13] = tested on: Stenotrophomonas maltophilia (ATCC 13637); assay: Antimicrobial disk diffusion; type: cell-based
SF-295 = assay: NCI 60-cell screen; type: cell-based, human; details: averaged, quadruplicate, upper limit 10^−5 M
786-O = assay: NCI 60-cell screen; type: cell-based, human; details: averaged, quadruplicate, upper limit 10^−5 M
MDA-N = assay: NCI 60-cell screen; type: cell-based, human; details: averaged, quadruplicate, upper limit 10^−5 M
[14] = tested on: Enterobacter cloacae (ATCC 13047); assay: Antimicrobial disk diffusion; type: cell-based

## C/C=C(/C)C(=O)OC[C@H]1C2=C(C=C3[C@H]4c5c(O)c(OC)c(C)c(O)c5C(=O)[C@@H](C(=O)N31)N4C)C(=O)C(C)=C(OC)C2=O [Cribrostatin 5, cribrostatin 5]
[1]
  GI50: 0.045 µg/mL (≈ 0.0778 µM)
[1]; listed as cribrostatin 5
  PS ED50 (P388 ED50): 0.045 µg/mL
[2]; listed as 4b
  Minimum inhibitory concentration: * (No inhibition at 100 μg/disk)
[3]; listed as 4b
  Minimum inhibitory concentration: 50-100 μg/disk
KM20L2 (Colon)
  GI50: 0.14 µg/mL (≈ 0.242 µM)
SF-295 (CNS)
  GI50: 0.36 µg/mL (≈ 0.622 µM)
DU-145 (Prostate)
  GI50: 0.30 µg/mL (≈ 0.519 µM)
BXPC-3 (Pancreas-a)
  GI50: 0.29 µg/mL (≈ 0.501 µM)
NCI-H460 (Lung-NSC)
  GI50: 0.22 µg/mL (≈ 0.38 µM)
OVCAR-3 (Ovarian)
  GI50: 0.18 µg/mL (≈ 0.311 µM)
[4]
  Minimum inhibitory concentration: * (No inhibition at 100 μg/disk)

## cribrostatin 3
SF-539
  negative log10 GI50: 5.32
UACC-62
  negative log10 GI50: 5.60
ACHN
  negative log10 GI50: 5.02
[5]
  Minimum inhibitory concentration: * (No inhibition at 100 μg/disk)
OVCAR-8
  negative log10 GI50: 5.06
MDA-MB-435
  negative log10 GI50: 5.74
SR
  negative log10 GI50: 5.47
RXF-393
  negative log10 GI50: 5.31
CCRF-CEM
  negative log10 GI50: 5.37
HOP-92
  negative log10 GI50: 5.02
SF-268
  negative log10 GI50: 5.20
LOX IMVI
  negative log10 GI50: 5.39
MCF7/ADR-RES
  negative log10 GI50: 5.34
[6]
  Minimum inhibitory concentration: * (No inhibition at 100 μg/disk)
U251
  negative log10 GI50: 5.49
[1]
  GI50: 2.49 µg/mL
  PS ED50 (P388 ED50): 2.5 µg/mL
SW-620
  negative log10 GI50: 5.44
MCF7
  negative log10 GI50: 5.33
A549/ATCC
  negative log10 GI50: 5.46
SN12C
  negative log10 GI50: 5.21
[7]
  Minimum inhibitory concentration: 0.39-0.78 μg/disk
T-47D
  negative log10 GI50: 5.19
[8]
  Minimum inhibitory concentration: 0.0975-0.195 μg/disk
HOP-62
  negative log10 GI50: 5.27
COLO 205
  negative log10 GI50: 5.23
[9]
  Minimum inhibitory concentration: * (No inhibition at 100 μg/disk)
HL-60 (TB)
  negative log10 GI50: 5.51
NCI-H226
  negative log10 GI50: 5.15
[2]
  Minimum inhibitory concentration: * (No inhibition at 100 μg/disk)
[10]
  Minimum inhibitory concentration: * (No inhibition at 100 μg/disk)
[3]
  Minimum inhibitory concentration: * (No inhibition at 100 μg/disk)
PC-3
  negative log10 GI50: 5.70
OVCAR-3
  negative log10 GI50: 5.74
SK-MEL-5
  negative log10 GI50: 5.96
RPMI-8226
  negative log10 GI50: 5.07
OVCAR4
  negative log10 GI50: 5.28
KM 12
  negative log10 GI50: 5.31
K-562
  negative log10 GI50: 5.13
MDA-MB-231/ATCC
  negative log10 GI50: 5.06
NCI-H522
  negative log10 GI50: 5.41
MALME-3M
  negative log10 GI50: 6.21
KM20L2 (Colon)
  GI50: >1 µg/mL
SF-295 (CNS)
  GI50: >1 µg/mL
DU-145 (Prostate)
  GI50: >1 µg/mL
BXPC-3 (Pancreas-a)
  GI50: >1 µg/mL
NCI-H460 (Lung-NSC)
  GI50: >1 µg/mL
OVCAR-3 (Ovarian)
  GI50: 0.77 µg/mL
[11]
  GI50: 4.27 µM
MOLT-4
  negative log10 GI50: 5.31
HS578T
  negative log10 GI50: 5.20
SNB-75
  negative log10 GI50: 5.32
NCI-H460
  negative log10 GI50: 5.52
[12]
  Minimum inhibitory concentration: * (No inhibition at 100 μg/disk)
IGROV1
  negative log10 GI50: 5.14
[13]
  Minimum inhibitory concentration: * (No inhibition at 100 μg/disk)
[4]
  Minimum inhibitory concentration: * (No inhibition at 100 μg/disk)
SF-295
  negative log10 GI50: 5.44
786-O
  negative log10 GI50: 5.23
MDA-N
  negative log10 GI50: 5.72
[14]
  Minimum inhibitory concentration: * (No inhibition at 100 μg/disk)
